These results are taken from EP2488529B1, “Spirocyclic derivatives as histone deacetylase inhibitors” (DAC S.r.l., priority 2009, dated 2011).

The target in one test is HDAC. Kind of test: Assay of enzyme inhibition of HDAC (BIOMOL kit, fluorescence). The class given is biochemical. The settings on record: nuclear fraction of Hela cells; substrate 200 µM; 15 min at RT. How it is done:
The in-vitro activity of HDAC inhibitors was assayed using a BIOMOL Kit, according to the instructions from the manufacturer (Biomolecular Research Laborator). 15 µl of 30 x diluted nuclear fraction of Hela cells, was diluted to 50 µl with the assay buffer containing the HDAC inhibitor and the substrate (lysine with acetylated amino group on the side chain) at a concentration of 200 µM. The samples were incubated for 15 min at RT and then exposed to a developer (10 min at RT). In this last step a fluorophore was produced, whose fluorescence was measured using an excitation wavelength of 355 nm and an emission at 460 nm. The IC50 was calculated using GraphPad Software.

Another test relates to A549. Briefly: Cell growth, CellTiter-Glo Luminescent Cell Viability Assay (antiproliferative assay). The class given is cell-based. The settings on record: A549 cells, incubated for 72 h. From the text:
(§1) CellTiter-Glo® Luminescent Cell Viability Assay (Promega) is a homogeneous method of determining the number of viable cells in culture based on quantitation of the present ATP, which indicates the presence of metabolically active cells. The homogeneous assay procedure involves addition of a single reagent (CellTiter-Glo® Reagent) directly to the cells, which leads to cell lysis and generation of a luminescent signal proportional to the amount of the ATP and the number of cells present in culture. The assay relies on the properties of a proprietary thermostable luciferase (Ultra-Glo® recombinant luciferase), which generates a luminescent signal. K562, A549, and HCT-116 cells, in exponential growth, were incubated for 72 h with different concentrations of the inhibitors. After 72 h, a volume of CellTiter-Glo® Reagent equal to the volume of cell culture medium was added. The content was mixed for 2 min to induce cell lysis. The luminescence was recorded after further 10 min at RT in order to obtain a stable luminescent signal.
(§2) The IC50 was calculated using GraphPad Software.
(Cellular ATP, detected with luciferase, serves as a proxy for viable cell number.)

In another test the test system is HCT-116. The description is as above. The class given is cell-based. The settings on record: HCT-116 cells, incubated for 72 h, read-out: HCT116 IC50.
Text: as §1, §2

The test system of a further test is K562. Described as above. The class given is cell-based. The settings on record: K562 cells, incubated for 72 h.
Text: as §1, §2

Where two headings read alike, the source gives them in different places.

Consider `CN1CCCC2(CC1)CC(=O)c1cc(/C=C/C(=O)NO)ccc1O2` (racemic) [Example 26, (±)-(E)-3-[1'-Methyl-4-oxo-spiro(chromane-2,4'-azepane)-6-yl]-N-hydroxy-acrylamide], for which the 50% inhibitory concentration (IC50) at HDAC is 100 to 1000 nM; in the test on A549 (Homo sapiens) it was not above 1000 nM; in the test with HCT-116 (Homo sapiens), not above 1000 nM; in the test with K562 (Homo sapiens), not above 1000 nM.

Turning to `CCOC(=O)N1CCCC2(CC1)CC(=O)c1cc(/C=C/C(=O)NO)ccc1O2` (racemic) [Example 27, (±)-(E)-3-[1'-Ethyloxycarbonyl-4-oxo-spiro(chromane-2,4'-azepane)-6-yl]-N-hydroxy-acrylamide], the half-maximal inhibitory concentration (IC50) against HDAC was 100 to 1000 nM; in the test on A549 (Homo sapiens), not below 3000 nM; in the test on HCT-116 (Homo sapiens), 1000 to 3000 nM; with K562 (Homo sapiens), 1000 to 3000 nM.

On to `O=C(/C=C/c1ccc2c(c1)C(=O)CC1(CCCN(CCc3ccccc3)CC1)O2)NO` (racemic) [Example 28, (±)-(E)-3-[1'-(2-Phenyl-ethyl)-4-oxo-spiro(chromane-2,4'-azepane)-6-yl]-N-hydroxy-acrylamide], for which the IC50 is not above 100 nM at HDAC, not above 1000 nM with A549 (Homo sapiens), not above 1000 nM in the test with HCT-116 (Homo sapiens) and not above 1000 nM with K562 (Homo sapiens).

Take `O=C(/C=C/c1ccc2c(c1)C(=O)CC1(CCCN(Cc3ccc(F)cc3)CC1)O2)NO` (racemic) [Example 29, (±)-(E)-3-[1'-(4-Fluoro-benzyl)-4-oxo-spiro(chromane-2,4'-azepane)-6-yl]-N-hydroxy-acrylamide]: the IC50 at HDAC was 100 to 1000 nM; with A549 (Homo sapiens), not above 1000 nM; in the test with HCT-116 (Homo sapiens) it was not above 1000 nM; in the test with K562 (Homo sapiens), not above 1000 nM.

Turning to `O=C(/C=C/c1ccc2c(c1)C(=O)NC1(CCCNC1)O2)NO` (racemic) [Example 39, (±)-(E)-3-{3,4-Dihydro-4-oxo-spiro[2H-(1,3)-benzoxazine-2,3'-piperidin]-6-yl}-N-hydroxy-acrylamide], the half-maximal inhibitory concentration (IC50) was 100 to 1000 nM at HDAC, not below 3000 nM in the test with A549 (Homo sapiens), 1000 to 3000 nM in the test on HCT-116 (Homo sapiens) and 1000 to 3000 nM with K562 (Homo sapiens).

`O=C(/C=C/c1ccc2c(c1)C(=O)NC1(CCCN(Cc3ccccc3)C1)O2)NO` (racemic) [Example 40, (±)-(E)-3-{1'-Benzyl-3,4-dihydro-4-oxo-spiro[2H-(1,3)-benzoxazine-2,3'-piperidin]-6-yl}-N-hydroxy-acrylamide]: the half-inhibitory concentration (IC50) was not above 100 nM on HDAC, not above 1000 nM in the test on A549 (Homo sapiens), not above 1000 nM in the test on HCT-116 (Homo sapiens) and not above 1000 nM with K562 (Homo sapiens).

For `CN1CCCC2(C1)NC(=O)c1cc(/C=C/C(=O)NO)ccc1O2` (racemic) [Example 41, (±)-(E)-3-{1'-Methyl-3,4-dihydro-4-oxo-spiro[2H-(1,3)-benzoxazine-2,3'-piperidin]-6-yl}-N-hydroxy-acrylamide], the IC50 on HDAC was 100 to 1000 nM; with A549 (Homo sapiens), 1000 to 3000 nM; with HCT-116 (Homo sapiens), not above 1000 nM; in the test on K562 (Homo sapiens), not above 1000 nM.

Consider `O=C(/C=C/c1ccc2c(c1)C(=O)NC1(CCCN(Cc3ccc(F)cc3)C1)O2)NO` (racemic) [Example 42, (±)-(E)-3-{1'-(4-Fluoro-benzyl)-3,4-dihydro-4-oxo-spiro[2H-(1,3)-benzoxazine-2,3'-piperidin]-6-yl}-N-hydroxy-acrylamide], for which the 50% inhibitory concentration (IC50) against HDAC is 100 to 1000 nM; with A549 (Homo sapiens), 1000 to 3000 nM; in the test with HCT-116 (Homo sapiens), not above 1000 nM; in the test with K562 (Homo sapiens) it was not above 1000 nM.

As to `O=C(/C=C/c1ccc2c(c1)C(=O)NC1(CCCN(CCc3ccccc3)C1)O2)NO` (racemic) [Example 43, (±)-(E)-3-{1'-(2-Phenyl-ethyl)-3,4-dihydro-4-oxo-spiro[2H-(1,3)-benzoxazine-2,3'-piperidin]-6-yl}-N-hydroxy-acrylamide], the concentration for half-maximal inhibition (IC50) against HDAC is not above 100 nM; in the test with A549 (Homo sapiens) it was not above 1000 nM; in the test with HCT-116 (Homo sapiens), not above 1000 nM; in the test with K562 (Homo sapiens), not above 1000 nM.

As to `Cn1cc(CN2CCCC3(CC(=O)c4cc(/C=C/C(=O)NO)ccc4O3)C2)c2ccccc21` (racemic) [Example 45, (±)-(E)-3-[1'-(1-Methyl-1H-indol-3-ylmethyl)-4-oxo-spiro(chromane-2,3'-piperidine)-6-yl]-N-hydroxy-acrylamide], the concentration for half-maximal inhibition (IC50) was 100 to 1000 nM against HDAC, not above 1000 nM in the test on A549 (Homo sapiens), not above 1000 nM in the test with HCT-116 (Homo sapiens) and not above 1000 nM in the test on K562 (Homo sapiens).

As for `Cn1cc(CN2CCCC3(C2)NC(=O)c2cc(/C=C/C(=O)NO)ccc2O3)c2ccccc21` (racemic) [Example 46, (±)-(E)-3-{1'-(1-Methyl-1H-indol-3-ylmethyl)-4-oxo-spiro[2H-(1,3)-benzoxazine-2,3'-piperidin]-6-yl}-N-hydroxy-acrylamide], the IC50 against HDAC is 100 to 1000 nM; with A549 (Homo sapiens), not above 1000 nM; in the test with HCT-116 (Homo sapiens), not above 1000 nM; in the test on K562 (Homo sapiens), not above 1000 nM.

On to `CC(C)N1CCCC2(CC(=O)c3cc(/C=C/C(=O)NO)ccc3O2)C1` (racemic) [Example 49, (±)-(E)-3-[1'-Isopropyl-4-oxo-spiro(chromane-2,3'-piperidine)-6-yl]-N-hydroxy-acrylamide], for which the half-maximal inhibitory concentration (IC50) is 100 to 1000 nM at HDAC, not above 1000 nM in the test with A549 (Homo sapiens), not above 1000 nM in the test with HCT-116 (Homo sapiens) and not above 1000 nM in the test on K562 (Homo sapiens).

Consider `O=C(/C=C/c1ccc2c(c1)C(=O)CC1(CCCN(C3CCCC3)C1)O2)NO` (racemic) [Example 50, (±)-(E)-3-[1'-Cyclopentyl-4-oxo-spiro(chromane-2,3'-piperidine)-6-yl]-N-hydroxy-acrylamide], for which the half-inhibitory concentration (IC50) at HDAC was not above 100 nM; with A549 (Homo sapiens) it was not above 1000 nM; in the test with HCT-116 (Homo sapiens), not above 1000 nM; in the test with K562 (Homo sapiens), not above 1000 nM.

As for `O=C(/C=C/c1ccc2c(c1)C(=O)CC1(CCN(Cc3ccccc3)C1)O2)NO` (single isomer, unassigned; (+)) [Example 4, (+)-(E)-3-[1'-Benzyl-4-oxo-spiro(chromane-2,3'-pyrrolidine)-6-yl]-N-hydroxy-acrylamide], the IC50 is not above 100 nM against HDAC, not above 1000 nM with A549, not above 1000 nM in the test with HCT-116 and not above 1000 nM with K562.

`O=C(/C=C/c1ccc2c(c1)C(=O)CC1(CCCN(Cc3ccccc3)C1)O2)NO` (single isomer, unassigned; (+)) [Example 18, (+)-(E)-3-[1'-Benzyl-4-oxo-spiro(chrormane-2,3'-piperidine)-6-yl]-N-hydroxy-acrylamide]: the concentration for half-maximal inhibition (IC50) was 100 to 1000 nM at HDAC, 1000 to 3000 nM in the test with A549 (Homo sapiens), not above 1000 nM in the test with HCT-116 (Homo sapiens) and not above 1000 nM in the test on K562 (Homo sapiens).

Turning to `O=C(/C=C/c1ccc2c(c1)C(=O)CC1(CCN(Cc3ccccc3)C1)O2)NO` (single isomer, unassigned; (-)) [Example 3, (-)-(E)-3-[1 '-Benzyl-4-oxo-spiro(chromane-2,3'-pyrrolidine)-6-yl]-N-hydroxy-acrylamide], the half-maximal inhibitory concentration (IC50) was not above 100 nM at HDAC, not above 1000 nM in the test with A549 (Homo sapiens), not above 1000 nM in the test on HCT-116 (Homo sapiens) and not above 1000 nM in the test on K562 (Homo sapiens).

Consider `O=C(/C=C/c1ccc2c(c1)C(=O)CC1(CCCN(Cc3ccccc3)C1)O2)NO` (single isomer, unassigned; (-)) [Example 17, (-)-(E)-3-[1'-Benzyl-4-oxo-spiro(chromane-2,3'-piperidine)-6-yl]-N-hydroxy-acrylamide], for which the IC50 is not above 100 nM against HDAC, 1000 to 3000 nM in the test with A549 (Homo sapiens), not above 1000 nM with HCT-116 (Homo sapiens) and not above 1000 nM in the test with K562 (Homo sapiens).

`O=C(/C=C/c1ccc2c(c1)C(=O)CC1(CNC1)O2)NO` [Example 30, (E)-3-[4-Oxo-spiro(chromane-2,3'-azetidine)-6-yl]-N-hydroxy-acrylamide]: the IC50 is 100 to 1000 nM against HDAC, not below 3000 nM in the test on A549 (Homo sapiens), not below 3000 nM in the test on HCT-116 (Homo sapiens) and 1000 to 3000 nM with K562 (Homo sapiens).

As for `O=C(/C=C/c1ccc2c(c1)C(=O)CC1(CN(Cc3ccccc3)C1)O2)NO` [Example 31, (E)-3-[1'-Benzyl-4-oxo-spiro(chromane-2,3'-azetidine)-6-yl]-N-hydroxy-acrylamide], the IC50 is not above 100 nM against HDAC, not above 1000 nM in the test with A549 (Homo sapiens), not above 1000 nM with HCT-116 (Homo sapiens) and not above 1000 nM in the test on K562 (Homo sapiens).

As for `O=C(/C=C/c1ccc2c(c1)C(=O)CC1(CN(CCc3ccccc3)C1)O2)NO` [Example 32, (E)-3-[1'-(2-Phenyl-ethyl)-4-oxo-spiro(chromane-2,3'-azetidine)-6-yl]-N-hydroxy-acrylamide], the IC50 was 100 to 1000 nM on HDAC, not above 1000 nM in the test on A549 (Homo sapiens), not above 1000 nM with HCT-116 (Homo sapiens) and not above 1000 nM in the test on K562 (Homo sapiens).

As to `O=C(/C=C/c1ccc2c(c1)C(=O)CC1(CN(Cc3ccc(F)cc3)C1)O2)NO` [Example 33, (E)-3-[1'-(4-Fluoro-benzyl)-4-oxo-spiro(chromane-2,3'-azetidine)-6-yl]-N-hydroxy-acrylamide], the IC50 at HDAC was 100 to 1000 nM; in the test on A549 (Homo sapiens) it was not above 1000 nM; in the test on HCT-116 (Homo sapiens), not above 1000 nM; in the test with K562 (Homo sapiens), not above 1000 nM.

In general, IC50 refers to the concentration needed to halve the response being measured.
